Experimental data published in patent publication US20240336661A1, “PEPTIDES DERIVED FROM RUMINOCOCCUS TORQUES” (University of Copenhagen, priority 2021, published 2024).

Tests used:
murine C2C12 myoblasts = experiment: Myotube formation and myogenesis gene expression in C2C12 myoblasts; type: cell-based, mouse
Procedure: FIG. 12. […] The C2C12 myotubes were treated with indicated doses of RUCILP2 overnight and myotube images were collected at magnification, ×10.
FIG. 28. […] White preadipocytes from human visceral fat (C-12732, PromoCell) were cultured until 80% confluent and switched into differentiation media (with 0.3 ml/ml of fetal calf serum (FCS), 8 ug/ml of d-biotin, 0.5ug/ml of insulin, 400 ng/ml of dexamethasone) in the presence of 15 nM of 21-AABP2. The differentiation process to mature adipocytes was completed after 14 days. Cells were harvested after 14 days of differentiation and the indicated genes were quantified by q-PCR. Inguinal fat tissues from 6-week-old wild-type C57BL/6J female mice were dissected and washed with PBS, minced and digested for 1 hour at 37° C. in PBS containing 10 mM CaCl2, 2.4 U/ml dispase II (Roche) and 10 mg/ml collagenase D (Roche). After adding warm DMEM/F12 (1:1) with 10% FCS, digested tissue was filtered through a […] cell strainer and centrifuged at 600×g for 10 minutes. Pellet was resuspended by 40 ml DMEM/F12 (1:1) with 10% FCS and filtered through a […] cell strainer followed by centrifugation at 600×g for 10 minutes. Pelleted inguinal stromal vascular cells were grown to confluence and split onto 12-well plates. The cells were induced to differentiate by treatment with […], 0.5 mM isobutyl methyl xanthine for 2 days. After that, cells were maintained in […] for 4 days with medium change every other day. The cells were treated with 15 nM of 21-AABP2 every other day during 6 days of differentiation. Cells were harvested after 6 days of differentiation and thermogenesis gene were quantified by q-PCR. C2C12 myoblasts (CRL-1772, ATCC) were cultured until 80% confluent and switched into differentiation media (with 2% horse serum). The treatment with 21-AABP2 started from the second day of differentiation. Cells were harvested after 4 days of differentiation and expression of myogenesis genes were quantified by q-PCR. Data are presented as mean+/−SEM of one representative experiment done in biological triplicates. Statistical significance was determined by unpaired two-tailed Student's t test, *, p<0.05
FIG. 29. […] Representative images of myoblasts (CRL-1772, ATCC) at 24h of differentiation in the presence of phosphate buffered saline (PBS, blank) or 21-AABP2 (15 nM). Presented images were from one representative experiment done in biological triplicates.
C2C12 cells were seeded on 12-well plates under DMEM/F-12 medium (Dulbecco's Modified Eagle Medium/Nutrient Mixture F-12, Fisher Scientific, #11524436), supplemented with 10% FBS (Fetal Bovine Serum, Fisher Scientific, #11550356) and 1% Penicillin-Streptomycin (Fisher Scientific, #11548876). Cell cultures were maintained in a humidified chamber with 5% CO2 at 37° C., and culture media were changed every 2-3 days.
At approximately 80% confluence, 10% fetal bovine serum was replaced with 2% horse serum to induce C2C12 myoblast cells to differentiate into myotubes. Twenty-four hours later (day 1 of the differentiation), the cells were treated with recombinant RUCILP2 or commercial recombinant irisin (Sigma, #SRP8039-10UG and Phoenix pharmaceuticals, #067-29A) or saline. For integrin inhibitor treatment, cells were treated with 10 μM of CycloRGDyK (Selleckchem, #S7844) for 10 minutes and washed with PBS before treated with recombinant RUCILP2 or commercial recombinant irisin or saline. At day three, the cells were refreshed with the same media as day one. After treatments for six hours on day 3, C2C12 cells were harvested for qRT-PCR analysis.
C2C12 myoblasts were cultured until 80% confluent and switched into differentiation media (with 2% horse serum). The treatment with 21-AABP2 started from the second day of differentiation. Representative images of the formed myotubes at 24h of differentiation in the presence of PBS (blank) or 21-AABP2 (15 nM) were captured. […]

[1] = test system: murine inguinal white adipocytes; experiment: Thermogenesis gene expression in murine inguinal adipocytes (q-PCR); type: cell-based, mouse; details: mouse inguinal preadipocytes, 15 nM every other day, 6 days
Procedure: (§1) FIG. 9. Exposure of recombinant RUCILP2 to human visceral white pre-adipocytes or murine inguinal white adipocytes causes up-regulation of the expression of genes involved in thermogenesis/browning. Upper panel: mRNA expression level of adipocyte differentiation marker genes including Ucp1, Pparγ1, Dio2, and Cox2 and brown adipocyte-selective genes including Cpt1b and Ebf2 on human white preadipocytes (HWP). Human white preadipocytes were cultured until 80% confluent and switched into differentiation media (with 0.3 ml/ml fetal calf serum, 8 ug/ml d-biotin, 0.5 ug/ml insulin, 400 ng/ml dexamethasone). The differentiation process to mature adipocytes was completed after 12-14 days. The treatment of RUCILP2 started from the third day of differentiation. Cells were harvested after 14 days of differentiation and the gene expressions were quantified by q-PCR. […] Statistical significance was determined by unpaired two-tailed Student's t test. *, p<0.05 vs 0 nM RUCILP2.
(§2) FIG. 28. […] Cells were harvested after 14 days of differentiation and the indicated genes were quantified by q-PCR. […] Cells were harvested after 6 days of differentiation and thermogenesis gene were quantified by q-PCR. […] Cells were harvested after 4 days of differentiation and expression of myogenesis genes were quantified by q-PCR. […] Statistical significance was determined by unpaired two-tailed Student's t test, *, p<0.05 […]

[2] = test system: human visceral white pre-adipocytes; experiment: Thermogenesis/browning gene expression in human visceral white pre-adipocytes (q-PCR); type: cell-based; details: 15 nM, 14 days of differentiation
Procedure: as §1, §2

[3] = test system: rat insulinoma INS-1 cells; experiment: Insulin release from INS-1 cells (ELISA); type: cell-based; details: 15 nM, 12 hours
Procedure: FIG. 30. Insulin release from the immortalized rat insulinoma INS-1 cells is increased following 21-AABP2 stimulation. INS-1 cells (832/13, ThermoFisher) were grown in RPM 1640 medium until a confluency of 70% was achieved and switched to RPM 1640 medium supplied with 15 nM of 21-AABP2 and incubated for 12 hours. The insulin concentration in the supernatant of cell culture medium was measured by MSD rat/mouse insulin ELISA kit. Data are presented as mean+/−SEM of one representative experiment done in biological triplicate. Statistical significance was determined by unpaired two-tailed Student's t test, *, p<0.05.
INS-1 cells were grown in RPMI 1640 medium (11875093, ThermoFisher Scientific) until a confluency of 70% was achieved and switched to RPMI 1640 medium supplied with 15 nM of 21-AABP2 and incubated for 12 hours. The insulin concentration in supernatant of cell culture medium was measured by MSD rat/mouse insulin ELISA kit (Merck Millipore).

21-AABP2: 21 amino acid trypsin cleaved fragment of RUCILP2, made recombinantly in E. coli (AETTYFVEVTAVDAAGNESVK; Ruminococcus torques)
myotube development (murine C2C12 myoblasts; C2C12, 15 nM, 24h of differentiation): increases myotube development | expression of genes involved in myogenesis (Mymk, Caveolin-3) (murine C2C12 myoblasts; C2C12, harvested after 4 days of differentiation): stimulates expression | expression of key genes regulating thermogenesis [1]: induces expression | expression of genes involved in thermogenesis/browning [2]: promotes expression | insulin release [3]: increased
